Measurements reported in ChEMBL document CHEMBL1201862, “PubChem BioAssay data set” (2004).
Values belong to the compound of their own block, whether it stands above or below them. Activity calls are given as the source filed them.

Experiments:
Aurora kinase A = Aurora kinase A (Homo sapiens, UniProt O14965); assay type: functional;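 further: value from the Navigating the Kinome kinase panel profiling, panel entry STK6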
Aurora kinase B = Aurora kinase B (Homo sapiens, UniProt Q96GD4); assay type: functional
Coagulation factor XII = target: T1, Coagulation factor XII (Homo sapiens, UniProt P00748); assay type: functional;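 further: activated factor XIIa alpha cleaving a fluorogenic AMC peptide substrate; inhibitor potency from loss of enzyme activity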
T1 sequence (P00748 whole entry): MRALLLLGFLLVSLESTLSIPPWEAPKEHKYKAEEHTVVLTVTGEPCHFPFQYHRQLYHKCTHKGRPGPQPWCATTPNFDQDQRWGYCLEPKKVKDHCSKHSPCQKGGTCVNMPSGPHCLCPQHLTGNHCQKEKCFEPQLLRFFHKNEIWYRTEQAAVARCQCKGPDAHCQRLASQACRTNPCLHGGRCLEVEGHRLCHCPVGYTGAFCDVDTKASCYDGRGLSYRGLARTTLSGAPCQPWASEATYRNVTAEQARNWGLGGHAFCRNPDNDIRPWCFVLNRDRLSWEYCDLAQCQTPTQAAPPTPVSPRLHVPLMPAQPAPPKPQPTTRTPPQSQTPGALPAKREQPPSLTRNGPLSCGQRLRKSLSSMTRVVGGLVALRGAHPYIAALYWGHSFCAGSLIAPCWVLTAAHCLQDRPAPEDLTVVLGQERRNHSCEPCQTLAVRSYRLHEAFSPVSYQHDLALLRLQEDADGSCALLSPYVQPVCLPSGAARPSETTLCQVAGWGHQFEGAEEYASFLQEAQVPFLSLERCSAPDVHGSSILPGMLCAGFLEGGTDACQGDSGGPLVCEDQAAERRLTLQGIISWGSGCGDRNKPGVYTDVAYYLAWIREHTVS

Melanocortin receptor 4 = Melanocortin receptor 4 (Homo sapiens, UniProt P32245); experiment: MC4R antagonist potency on cAMP, dose response, cell-based, TR-FRET, biased antagonists (AID 602298); assay type: functional;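 further: antagonist potency against agonist-stimulated cAMP production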
[1] = nonselective inhibitors of cellular cAMP signaling, dose response, counter-screen for MC4R biased antagonist project, cell-based, TR-FRET cAMP detection (AID 602305); assay type: functional;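 further: U2OS cells stimulated with forskolin near its EC80 as the cAMP inducer; potency is for inhibition of forskolin-stimulated cAMP signaling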
[2] = target: T2, High affinity choline transporter 1 (Homo sapiens, UniProt Q9GZV3); experiment: CHT inhibitors, dose response, cell-based, 5-point CRC, membrane potential dye (AID 504840); assay type: functional
T2 sequence (Q9GZV3 whole entry): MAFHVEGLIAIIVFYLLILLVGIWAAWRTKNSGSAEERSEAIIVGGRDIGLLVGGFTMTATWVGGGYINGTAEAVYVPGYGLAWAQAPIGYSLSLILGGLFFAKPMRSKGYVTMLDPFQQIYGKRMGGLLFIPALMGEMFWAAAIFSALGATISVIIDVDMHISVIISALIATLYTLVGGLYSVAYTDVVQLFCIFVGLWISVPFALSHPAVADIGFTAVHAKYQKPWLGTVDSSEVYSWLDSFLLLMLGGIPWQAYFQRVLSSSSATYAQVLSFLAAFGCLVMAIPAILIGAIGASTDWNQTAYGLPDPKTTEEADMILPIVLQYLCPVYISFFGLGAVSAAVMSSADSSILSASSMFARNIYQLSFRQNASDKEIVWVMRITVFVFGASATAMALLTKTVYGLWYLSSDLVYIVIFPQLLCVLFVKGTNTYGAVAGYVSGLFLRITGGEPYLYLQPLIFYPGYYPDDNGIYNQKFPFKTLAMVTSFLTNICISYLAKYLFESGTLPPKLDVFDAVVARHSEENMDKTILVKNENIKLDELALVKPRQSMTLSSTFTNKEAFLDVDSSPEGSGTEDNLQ

[3] = target: T2, High affinity choline transporter 1; experiment: CHT inhibitors, dose response, cell-based, 10-point CRC, membrane potential dye (AID 588401); assay type: functional;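 further: membrane potential dye fluorescence of choline-evoked depolarization via CHT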
BJ [4] = experiment: cytotoxicity toward BJ-TERT fibroblasts, dose response, cell-based, RAS-independent, luminescence (AID 1933); assay type: functional; conditions: Homo sapiens
BJ [5] = experiment: cells; assay type: functional, cell-based; conditions: Homo sapiens
[6] = cytotoxicity toward DRD oncogenic fibroblasts, dose response, cell-based, non-viral oncogenic, luminescence (AID 1934); assay type: functional; conditions: Homo sapiens
CHO-K1 = experiment: (§1) Counterscreen for antagonists of the orexin 1 receptor (OX1R; HCRTR1): Homogeneous time resolved fluorescence (HTRF)-based cell-based dose response assay to identify antagonists of the parental CHO-K1 cell line. [Related pubchem assays (depositor defined):AID434989, AID435008, AID463079, AID485270, AID492963, AID492964, AID492965, AID493232, AID504699, AID504701]; assay type: functional; conditions: Cricetulus griseus
[7] = as §1, with “Fluorescence-based” for “Homogeneous time resolved fluorescence (HTRF)-based”, “cell-based high throughput” for “cell-based”, “CHO” for “CHO-K1”; assay type: functional
[8] = target: T3, Orexin/Hypocretin receptor type 1 (Homo sapiens, UniProt O43613); experiment: Homogeneous Time Resolved Fluorescence (HTRF)-based cell-based high throughput dose response assay for antagonists of the orexin 1 receptor (OX1R; HCRTR1). [Related pubchem assays (depositor defined):AID434989, AID435008, AID463079, AID485270, AID492963, AID492964, AID492965, AID493232, AID504717, AID504718]; assay type: functional
T3 sequence (O43613 whole entry): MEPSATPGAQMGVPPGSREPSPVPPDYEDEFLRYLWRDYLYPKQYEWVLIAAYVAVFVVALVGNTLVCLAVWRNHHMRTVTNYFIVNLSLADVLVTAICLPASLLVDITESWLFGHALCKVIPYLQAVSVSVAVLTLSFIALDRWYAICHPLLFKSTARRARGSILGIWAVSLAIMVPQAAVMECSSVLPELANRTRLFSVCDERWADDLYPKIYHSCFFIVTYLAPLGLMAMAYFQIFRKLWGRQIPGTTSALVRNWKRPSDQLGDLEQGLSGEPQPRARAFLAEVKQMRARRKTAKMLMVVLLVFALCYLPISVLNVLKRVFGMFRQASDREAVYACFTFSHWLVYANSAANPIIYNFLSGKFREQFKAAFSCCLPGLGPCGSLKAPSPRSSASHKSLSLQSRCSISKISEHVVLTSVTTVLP

[9] = target: T3, Orexin/Hypocretin receptor type 1; experiment: Fluorescence-based cell-based high throughput dose response assay for antagonists of the orexin 1 receptor (OX1R; HCRTR1). [Related pubchem assays (depositor defined):AID434989, AID435008, AID463079, AID485270, AID492963, AID492964, AID492965, AID493232, AID504717, AID504718]; assay type: functional
CHO = experiment: cytotoxicity in TLR9-MyD88 CHO cells, dose response, cytotoxicity control for TLR9-MyD88 binding inhibitor project, cell-based, luminescence (AID 588339); assay type: functional, hamster; conditions: Cricetulus griseus;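 further: CHO cells stably coexpressing TLR9 and MyD88 fusions from primary screen; compound exposure lasted 48 hours before viability readout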
Beta Lactamase = Beta Lactamase (Pseudomonas aeruginosa, UniProt Q932Y6); experiment: beta-lactamase reporter inhibitor potency, dose response, artefact control for TLR9-MyD88 binding inhibitor project, BLA reporter cells, FRET fluorescence (AID 588341); assay type: cell-based;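 further: cell based assay in CHO-K1 cells stably expressing beta-lactamase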
Orexin receptor type 2 [10] = target: T4, Orexin receptor type 2 (Homo sapiens, UniProt O43614); experiment: Counterscreen assay for antagonists of the orexin 1 receptor (OX1R; HCRTR1): Fluorescence-based cell-based dose response assay for antagonists of the orexin 2 receptor (OX2R; HCRTR2), run by assay provider.; assay type: functional
T4 sequence (O43614 whole entry): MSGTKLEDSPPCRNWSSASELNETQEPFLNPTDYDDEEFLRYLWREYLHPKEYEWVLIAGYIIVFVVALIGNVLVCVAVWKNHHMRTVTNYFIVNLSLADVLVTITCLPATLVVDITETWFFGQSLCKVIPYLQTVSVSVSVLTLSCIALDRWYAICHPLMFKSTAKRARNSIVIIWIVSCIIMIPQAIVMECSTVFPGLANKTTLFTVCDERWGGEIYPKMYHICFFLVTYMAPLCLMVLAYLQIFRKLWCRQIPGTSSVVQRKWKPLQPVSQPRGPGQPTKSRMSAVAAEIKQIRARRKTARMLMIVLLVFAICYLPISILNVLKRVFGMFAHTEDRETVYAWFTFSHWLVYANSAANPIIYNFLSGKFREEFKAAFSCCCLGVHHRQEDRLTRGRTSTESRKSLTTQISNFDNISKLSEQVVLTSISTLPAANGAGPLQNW

Orexin receptor type 2 [11] = target: T4, Orexin receptor type 2; experiment: Counterscreen assay for antagonists of the orexin 1 receptor (OX1R; HCRTR1): Homogeneous Time Resolved Fluorescence (HTRF)-based cell-based dose response assay for antagonists of the orexin 2 receptor (OX2R; HCRTR2), run by assay provider.; assay type: functional
[12] = target: ALK tyrosine kinase receptor (Homo sapiens, UniProt Q9UM73); assay type: functional;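 further: ALK tested as one member of a kinase panel screen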
[13] = target: T5, Apoptotic protease-activating factor 1 (Homo sapiens, UniProt O14727); experiment: SAR analysis of small molecule Activators of Apaf-1 in a Fluorescent assay.; assay type: functional; conditions: read-out: EC50_Mean;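 further: caspase-3 cleavage of fluorogenic Rh110 DEVD substrate downstream of apoptosome activation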
T5 sequence (O14727 whole entry): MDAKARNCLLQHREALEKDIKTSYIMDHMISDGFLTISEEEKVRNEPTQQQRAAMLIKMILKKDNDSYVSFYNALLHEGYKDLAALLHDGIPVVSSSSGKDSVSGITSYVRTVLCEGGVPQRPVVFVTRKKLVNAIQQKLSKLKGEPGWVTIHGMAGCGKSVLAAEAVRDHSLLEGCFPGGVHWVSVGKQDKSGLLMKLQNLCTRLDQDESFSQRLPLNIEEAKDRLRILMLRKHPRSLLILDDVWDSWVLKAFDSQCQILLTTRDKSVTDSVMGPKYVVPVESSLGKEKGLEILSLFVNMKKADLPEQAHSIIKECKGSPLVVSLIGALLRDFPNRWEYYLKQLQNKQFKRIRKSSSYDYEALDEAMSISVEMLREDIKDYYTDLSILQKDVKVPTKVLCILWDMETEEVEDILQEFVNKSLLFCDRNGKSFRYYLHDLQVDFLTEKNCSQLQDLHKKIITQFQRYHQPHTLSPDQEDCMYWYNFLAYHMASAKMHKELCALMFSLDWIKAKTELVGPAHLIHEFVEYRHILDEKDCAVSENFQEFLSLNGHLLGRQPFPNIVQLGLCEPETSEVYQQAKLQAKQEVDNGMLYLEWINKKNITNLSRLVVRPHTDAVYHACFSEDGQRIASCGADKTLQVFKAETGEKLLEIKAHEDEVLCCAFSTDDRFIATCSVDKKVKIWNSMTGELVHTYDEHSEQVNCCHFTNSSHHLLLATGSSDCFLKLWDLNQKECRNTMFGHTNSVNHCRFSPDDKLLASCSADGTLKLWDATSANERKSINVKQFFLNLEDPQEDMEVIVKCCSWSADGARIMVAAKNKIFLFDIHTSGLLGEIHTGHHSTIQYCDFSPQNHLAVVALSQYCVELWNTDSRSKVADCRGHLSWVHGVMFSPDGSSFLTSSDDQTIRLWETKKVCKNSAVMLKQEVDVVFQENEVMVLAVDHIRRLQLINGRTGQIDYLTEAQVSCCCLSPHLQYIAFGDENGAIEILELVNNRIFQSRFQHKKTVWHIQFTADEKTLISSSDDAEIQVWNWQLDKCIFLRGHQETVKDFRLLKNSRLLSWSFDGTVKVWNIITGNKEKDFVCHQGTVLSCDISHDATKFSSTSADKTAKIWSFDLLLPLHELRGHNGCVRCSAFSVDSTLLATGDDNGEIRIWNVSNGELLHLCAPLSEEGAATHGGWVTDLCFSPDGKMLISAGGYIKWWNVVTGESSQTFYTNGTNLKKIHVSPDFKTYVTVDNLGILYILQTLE

Sequence of Aurora kinase A (O14965 whole entry): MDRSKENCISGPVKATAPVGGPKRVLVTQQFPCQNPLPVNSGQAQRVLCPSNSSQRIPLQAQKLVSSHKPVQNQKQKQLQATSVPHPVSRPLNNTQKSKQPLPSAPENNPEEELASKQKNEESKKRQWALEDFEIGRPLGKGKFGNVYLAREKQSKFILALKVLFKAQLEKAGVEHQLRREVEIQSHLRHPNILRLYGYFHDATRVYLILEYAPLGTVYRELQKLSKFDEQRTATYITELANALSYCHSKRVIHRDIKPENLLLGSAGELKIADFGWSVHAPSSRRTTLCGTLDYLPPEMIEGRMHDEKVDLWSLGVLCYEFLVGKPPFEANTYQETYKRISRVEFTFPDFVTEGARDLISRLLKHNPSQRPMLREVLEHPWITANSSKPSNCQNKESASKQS
Sequence of Aurora kinase B (Q96GD4 whole entry): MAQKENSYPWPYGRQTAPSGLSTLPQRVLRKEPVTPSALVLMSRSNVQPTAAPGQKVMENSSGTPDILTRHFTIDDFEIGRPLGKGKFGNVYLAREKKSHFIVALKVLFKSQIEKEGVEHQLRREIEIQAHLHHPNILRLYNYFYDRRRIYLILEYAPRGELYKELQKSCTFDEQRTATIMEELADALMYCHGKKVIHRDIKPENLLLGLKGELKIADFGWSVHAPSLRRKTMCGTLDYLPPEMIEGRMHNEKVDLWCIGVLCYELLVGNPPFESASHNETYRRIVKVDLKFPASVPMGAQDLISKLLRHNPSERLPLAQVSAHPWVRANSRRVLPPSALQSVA
Sequence of ALK tyrosine kinase receptor (Q9UM73 whole entry): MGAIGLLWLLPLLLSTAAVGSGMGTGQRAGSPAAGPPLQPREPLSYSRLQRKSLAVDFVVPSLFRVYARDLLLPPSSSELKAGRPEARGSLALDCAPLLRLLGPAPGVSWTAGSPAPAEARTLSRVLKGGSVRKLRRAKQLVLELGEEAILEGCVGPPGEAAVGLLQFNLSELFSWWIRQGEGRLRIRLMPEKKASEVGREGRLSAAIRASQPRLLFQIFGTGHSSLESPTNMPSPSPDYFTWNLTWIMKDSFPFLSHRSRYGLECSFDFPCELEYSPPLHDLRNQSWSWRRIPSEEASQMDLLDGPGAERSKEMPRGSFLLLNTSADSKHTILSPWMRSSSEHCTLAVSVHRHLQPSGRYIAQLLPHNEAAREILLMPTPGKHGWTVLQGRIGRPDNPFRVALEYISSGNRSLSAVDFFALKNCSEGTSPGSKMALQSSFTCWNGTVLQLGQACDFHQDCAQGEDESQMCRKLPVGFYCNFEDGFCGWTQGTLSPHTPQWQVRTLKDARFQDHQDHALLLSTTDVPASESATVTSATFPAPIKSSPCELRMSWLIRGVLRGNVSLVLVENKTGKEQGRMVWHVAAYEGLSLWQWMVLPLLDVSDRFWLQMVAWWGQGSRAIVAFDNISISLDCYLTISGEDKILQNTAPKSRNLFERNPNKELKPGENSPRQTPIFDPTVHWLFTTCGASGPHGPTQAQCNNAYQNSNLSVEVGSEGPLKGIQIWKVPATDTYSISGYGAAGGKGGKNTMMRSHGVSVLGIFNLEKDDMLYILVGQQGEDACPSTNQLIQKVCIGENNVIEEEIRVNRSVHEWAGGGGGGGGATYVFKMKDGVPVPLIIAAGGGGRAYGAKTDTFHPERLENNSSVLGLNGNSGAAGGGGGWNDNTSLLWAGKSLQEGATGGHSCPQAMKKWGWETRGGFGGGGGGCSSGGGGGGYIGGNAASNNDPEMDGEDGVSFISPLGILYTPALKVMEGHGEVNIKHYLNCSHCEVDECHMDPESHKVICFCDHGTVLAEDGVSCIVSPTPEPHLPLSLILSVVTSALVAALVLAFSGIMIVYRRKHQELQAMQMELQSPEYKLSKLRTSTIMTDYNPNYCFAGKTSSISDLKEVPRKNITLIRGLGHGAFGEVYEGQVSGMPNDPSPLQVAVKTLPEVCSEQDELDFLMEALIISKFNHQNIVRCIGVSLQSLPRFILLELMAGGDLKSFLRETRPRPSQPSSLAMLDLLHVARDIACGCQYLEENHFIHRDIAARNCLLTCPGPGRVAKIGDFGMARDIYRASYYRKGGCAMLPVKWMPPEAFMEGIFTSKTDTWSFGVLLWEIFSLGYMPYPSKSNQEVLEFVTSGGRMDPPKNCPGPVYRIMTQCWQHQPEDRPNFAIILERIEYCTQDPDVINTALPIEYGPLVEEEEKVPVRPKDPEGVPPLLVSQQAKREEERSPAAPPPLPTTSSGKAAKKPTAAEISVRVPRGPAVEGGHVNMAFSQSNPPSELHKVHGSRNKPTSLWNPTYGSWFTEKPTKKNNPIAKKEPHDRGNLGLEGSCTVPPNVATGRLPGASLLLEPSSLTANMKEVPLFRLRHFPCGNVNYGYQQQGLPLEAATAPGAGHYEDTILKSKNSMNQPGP
Sequence of Beta Lactamase (Q932Y6 whole entry): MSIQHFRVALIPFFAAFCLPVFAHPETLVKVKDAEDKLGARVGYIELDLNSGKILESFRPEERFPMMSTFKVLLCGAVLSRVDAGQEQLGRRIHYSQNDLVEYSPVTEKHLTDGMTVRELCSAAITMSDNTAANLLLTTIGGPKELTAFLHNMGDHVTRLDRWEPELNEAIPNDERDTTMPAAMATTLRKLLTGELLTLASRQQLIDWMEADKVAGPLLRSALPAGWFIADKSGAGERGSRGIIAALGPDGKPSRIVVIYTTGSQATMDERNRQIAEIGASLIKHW
Sequence of Melanocortin receptor 4 (P32245 whole entry): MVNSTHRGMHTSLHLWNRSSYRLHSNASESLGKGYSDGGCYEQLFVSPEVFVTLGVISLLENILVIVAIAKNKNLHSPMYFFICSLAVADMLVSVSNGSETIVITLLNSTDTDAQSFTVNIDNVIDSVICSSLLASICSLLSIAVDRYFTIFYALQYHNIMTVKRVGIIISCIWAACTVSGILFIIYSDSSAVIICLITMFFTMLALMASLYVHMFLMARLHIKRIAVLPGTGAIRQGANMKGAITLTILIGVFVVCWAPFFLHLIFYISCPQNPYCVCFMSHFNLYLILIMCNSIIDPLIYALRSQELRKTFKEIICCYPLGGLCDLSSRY

Ki (Aurora kinase A): 158 nM (active)
Ki (Aurora kinase B): 15.8 nM (active)
Compound: CCc1cccc(NC(=O)Nc2ccc(-c3c(C)oc4ncnc(N)c34)cc2)c1

IC50 [2]: 7770 nM (active)
IC50 [3]: 4010 nM (active)
Compound: CCOCCn1c(CN2CCN(c3ccc(F)cc3)CC2)nc2c1c(=O)n(C)c(=O)n2C

EC50 [13]: > 100000 nM (inactive)
Compound: CCC(C)(C)c1ccc(O)c(N2CC(C(=O)O)CC2=O)c1 (stereo unspecified)

The next lines start with the compound.

Compound: O=C(Nc1nnc(-c2ccccc2)s1)c1cc(S(=O)(=O)N2CCOCC2)c(Cl)cc1Cl
IC50 (Coagulation factor XII): > 50000 nM (inactive)
IC50 (Melanocortin receptor 4): > 2390 nM (active)
IC50 [1]: > 64600 nM (inactive)

Compound: CCN(CC)c1ccc2cc(-c3nc4ccccc4n3C)c(=O)oc2c1
EC50 (BJ [4]): < 120 nM (active)
EC50 (BJ [5]): 345 nM (active)
EC50 [6]: 185 nM (active)
IC50 (CHO-K1): > 66200 nM (inactive)
IC50 [7]: > 49800 nM (inactive)
IC50 [8]: 1140 nM (active)
IC50 [9]: 1770 nM (active)
IC50 (CHO): 29400 nM (inactive)
IC50 (Beta Lactamase): 2560 nM (active)
IC50 (Orexin receptor type 2 [10]): 32000 nM (inactive)
IC50 (Orexin receptor type 2 [11]): > 50000 nM (inactive)

Compound: CCc1cccc(NC(=O)Nc2ccc(-c3csc4c(-c5cnn(C)c5)cnc(N)c34)cc2)c1
Ki [12]: 25.1 nM (active)
Ki (Aurora kinase A): 7.94 nM (active)
